19 compounds from patent publication US20240317723A1, “SUBSTITUTED AMINO AZA-HETEROARYL COMPOUNDS AS INHIBITORS OF THE HAEMATOPOIETIC PROGENITOR KINASE 1 (HPK1)” (priority 2021, published 2024) can be followed below.

SMILES strings stand for the structures.

The target in one assay is Lck (h) (Homo sapiens, UniProt P06239). Nature of the assay: Lck Human STE Kinase Enzymatic Radiometric Assay. Type of assay: biochemical. The following applies: for IC50: radiometric, [gamma-33P]-ATP, Cdc2 peptide substrate, read-out: Lck IC50, nM Range*; for Selectivity: selectivity for inhibition of HPK1 vs Lck. On the procedure: (b) Lck Human STE Kinase Enzymatic Radiometric Assay
Chain of Lck (h) (P06239 whole entry): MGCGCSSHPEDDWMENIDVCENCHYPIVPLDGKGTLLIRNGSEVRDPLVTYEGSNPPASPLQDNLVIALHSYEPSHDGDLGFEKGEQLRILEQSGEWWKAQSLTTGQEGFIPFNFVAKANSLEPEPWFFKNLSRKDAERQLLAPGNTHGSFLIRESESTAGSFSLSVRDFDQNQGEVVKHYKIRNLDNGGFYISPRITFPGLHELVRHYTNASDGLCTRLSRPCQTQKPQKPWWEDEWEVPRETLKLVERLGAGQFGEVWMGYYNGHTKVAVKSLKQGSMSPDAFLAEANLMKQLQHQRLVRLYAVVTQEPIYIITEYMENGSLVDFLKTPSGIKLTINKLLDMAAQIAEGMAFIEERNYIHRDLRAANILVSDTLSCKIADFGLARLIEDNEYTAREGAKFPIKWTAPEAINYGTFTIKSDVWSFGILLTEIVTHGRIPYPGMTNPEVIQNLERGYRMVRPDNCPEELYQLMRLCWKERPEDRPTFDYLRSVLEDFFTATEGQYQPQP
Lck (h) is incubated with 50 mM Tris pH 7.5, 0.1 mM EGTA, 0.1 mM Na3VO4, 250 uM KVEKIGEGTYGVVYK (Cdc2 peptide), 10 mM MgAcetate and [gamma-33P]-ATP (specific activity and concentration as required). The reaction is initiated by the addition of the Mg/ATP mix. After incubation for 40 minutes at room temperature, the reaction is stopped by the addition of phosphoric acid to a concentration of 0.5%. 10 uL of the reaction is then spotted onto a P30 filtermat and washed four times for 4 minutes in 0.425% phosphoric acid and once in methanol prior to drying and scintillation counting. For more details on the kinase assay procedures see: Gao, Y. et. al.; Biochem J., 451 (2): 313-328, 2013.
In some embodiments the presence of substituents on monocyclic Cy^2 rings or when Cy^2 is a bicyclic ring (unsubstituted or substituted) provides compounds with improved selectivity for inhibition of HPK1 vs Lck (see, for example, Table 3 and Table 4).

Assay [1] deals with T1, Recombinant (1-346) HPK1 (h) (Homo sapiens, UniProt Q92918).
T1 construct: Recombinant (1-346) HPK1 (h) is incubated with 8 mM MOPS pH 7.0
T1 sequence (Q92918 1-346): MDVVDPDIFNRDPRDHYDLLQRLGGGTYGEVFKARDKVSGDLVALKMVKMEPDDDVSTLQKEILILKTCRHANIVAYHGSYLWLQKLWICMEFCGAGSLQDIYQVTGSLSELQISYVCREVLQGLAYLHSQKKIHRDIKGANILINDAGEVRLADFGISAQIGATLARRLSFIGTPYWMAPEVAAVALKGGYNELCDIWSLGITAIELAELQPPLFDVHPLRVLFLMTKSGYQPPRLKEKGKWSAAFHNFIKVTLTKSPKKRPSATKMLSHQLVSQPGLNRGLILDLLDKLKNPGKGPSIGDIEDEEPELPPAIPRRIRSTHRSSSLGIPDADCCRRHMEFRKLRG
Put plainly: HPK1 Human STE Kinase Enzymatic Radiometric Assay. Type of assay: biochemical. Conditions: [gamma-33P]-ATP, myelin basic protein substrate, read-out: HPK1 IC50 nM Range*. The procedure:
(a) HPK1 Human STE Kinase Enzymatic Radiometric Assay
A stock solution of 10 mM of test compound is prepared in DMSO. The compound plate was prepared by 3-fold and 9-point serial dilutions. Recombinant (1-346) HPK1 (h) is incubated with 8 mM MOPS pH 7.0, 0.2 mM EDTA, 0.33 mg/mL myelin basic protein, 10 mM MgAcetate and [gamma-33P]-ATP (specific activity and concentration as required). The reaction is initiated by the addition of the Mg/ATP mix. After incubation for 40 minutes at RT, the reaction is stopped by the addition of phosphoric acid to a concentration of 0.5%. 10 uL of the reaction is then spotted onto a P30 filtermat and washed four times for 4 minutes in 0.425% phosphoric acid and once in methanol prior to drying and scintillation counting. For more details of kinase assay protocols, see: Gao, Y. et. al.; Biochem J. 451 (2): 313-328, 2013.

Take `CC(C)[C@H]1CN(c2ccc(-c3cnc(N)c(-c4ccc5c(c4)CCNC5=O)n3)c(F)c2F)CCO1` [Example I-16, (S)-6-(3-amino-6-(2,3-difluoro-4-(2-isopropylmorpholino)phenyl)pyrazin-2-yl)-3,4-dihydroisoquinolin-1(2H)-one]: the IC50 (usually the concentration needed to halve the response being measured) fell in the range of 21 to 200 nM at Lck (h) and 0.1 to 5 nM in assay [1].
As to `C[C@H]1COCCN1c1ccc(-c2cnc(N)c(-c3ccc4c(c3)CCNC4=O)n2)c(F)c1` [Example I-23, (S)-6-(3-amino-6-(2-fluoro-4-(3-methylmorpholino)phenyl)pyrazin-2-yl)-3,4-dihydroisoquinolin-1(2H)-one], the IC50 on Lck (h) was in the range of 11 to 20 nM; in assay [1], 0.1 to 5 nM.
For the compound `CN1C[C@@H]2C[C@]2(c2ccc(-c3cnc(N)c(-c4cc5c(cc4F)C(=O)NCC5)n3)cc2)C1` [Example I-47, 6-(3-amino-6-(4-((1S,5R)-3-methyl-3-azabicyclo[3.1.0]hexan-1-yl)phenyl)pyrazin-2-yl)-7-fluoro-3,4-dihydroisoquinolin-1(2H)-one], the IC50 on Lck (h) fell in the range of 11 to 20 nM; in assay [1] it was 0.1 to 5 nM.
The like results for `CN([C@H]1CCN(c2ccc(-c3cnc(N)c(-c4ccc5c(c4)CCNC5=O)n3)cc2)C1)S(C)(=O)=O` [Example I-10, (S)-N-(1-(4-(5-amino-6-(1-oxo-1,2,3,4-tetrahydroisoquinolin-6-yl)pyrazin-2-yl)phenyl)pyrrolidin-3-yl)-N-methylmethanesulfonamide] were, in that order, 11 to 20 nM and 0.1 to 5 nM.
In the case of `CN1C[C@@H]2C[C@H]1CN2c1ccc(-c2cnc(N)c(-c3ccc4c(c3)CCNC4=O)n2)cc1` [Example I-26, 6-(3-amino-6-(4-((1S,4S)-5-methyl-2,5-diazabicyclo[2.2.1]heptan-2-yl)phenyl)pyrazin-2-yl)-3,4-dihydroisoquinolin-1(2H)-one], the concentration for half-maximal inhibition (IC50) on Lck (h) was 11 to 20 nM; in assay [1], 0.1 to 5 nM.
The like results for `Cc1nc2cc(-c3nc(-c4ccc(C5CCOCC5)c(CN(C)C)c4)cnc3N)ccc2c(=O)[nH]1` [II-3, 7-(3-amino-6-(3-((dimethylamino)methyl)-4-(tetrahydro-2H-pyran-4-yl)phenyl)pyrazin-2-yl)-2-methylquinazolin-4(3H)-one] were, in that order, 21 to 200 nM and 0.1 to 5 nM.
For the compound `CC(C)[C@H]1CN(c2ccc(-c3cnc(N)c(-c4ccc5c(c4)CCNC5=O)n3)c(F)c2)CCO1` [Example I-14, (S)-6-(3-amino-6-(2-fluoro-4-(2-isopropylmorpholino)phenyl)pyrazin-2-yl)-3,4-dihydroisoquinolin-1(2H)-one], the 50% inhibitory concentration (IC50) on Lck (h) lay within 21 to 200 nM; in assay [1] it was 0.1 to 5 nM. At Lck (h), this compound returned a Selectivity of 1066.
With `Nc1ncc(-c2ccc([C@]34C[C@H]3CN(C3CC3)C4)cc2)nc1-c1cc2c(cc1F)C(=O)NCC2` [Example I-52, 6-(3-amino-6-(4-((1S,5R)-3-cyclopropyl-3-azabicyclo[3.1.0]hexan-1-yl)phenyl)pyrazin-2-yl)-7-fluoro-3,4-dihydroisoquinolin-1(2H)-one], the concentration for half-maximal inhibition (IC50) at Lck (h) fell in the range of 6 to 10 nM; in assay [1], 0.1 to 5 nM.
Turning to `C[C@@H]1COCCN1c1ccc(-c2cnc(N)c(-c3ccc4c(c3)CCNC4=O)n2)cc1` [Example I-11, (R)-6-(3-amino-6-(4-(3-methylmorpholino)phenyl)pyrazin-2-yl)-3,4-dihydroisoquinolin-1(2H)-one], on Lck (h), the 50% inhibitory concentration (IC50) was 11 to 20 nM and the Selectivity was determined as 170. Moreover, in assay [1], the IC50 was 0.1 to 5 nM.
`C[C@H]1CCCCN1c1ccc(-c2cnc(N)c(-c3ccc4c(c3)CCNC4=O)n2)c(F)c1` [Example I-18, (S)-6-(3-amino-6-(2-fluoro-4-(2-methylpiperidin-1-yl)phenyl)pyrazin-2-yl)-3,4-dihydroisoquinolin-1(2H)-one]: the concentration for half-maximal inhibition (IC50) at Lck (h) was in the range of 21 to 200 nM; in assay [1], 6 to 10 nM.
Regarding `CC(C)[C@@H]1CN(c2ccc(-c3cnc(N)c(-c4ccc5c(c4)CCNC5=O)n3)cc2)CCN1C` [Example I-38, (R)-6-(3-amino-6-(4-(3-isopropyl-4-methylpiperazin-1-yl)phenyl)pyrazin-2-yl)-3,4-dihydroisoquinolin-1(2H)-one], the IC50 at Lck (h) is 6 to 10 nM; in assay [1] it was 0.1 to 5 nM.
Take `CC(C)[C@H]1CN(c2ccc(-c3cnc(N)c(-c4cc5c(cc4F)C(=O)NCC5)n3)c(F)c2F)CCO1` [Example I-32, (S)-6-(3-amino-6-(2,3-difluoro-4-(2-isopropylmorpholino)phenyl)pyrazin-2-yl)-7-fluoro-3,4-dihydroisoquinolin-1(2H)-one]: the IC50 on Lck (h) was in the range of 21 to 200 nM; in assay [1] it was 0.1 to 5 nM.
In the case of `CN1CCN(c2ccc(-c3cnc(N)c(-c4ccc5c(c4)CCNC5=O)n3)cc2)CC1` [Example I-1, 6-(3-amino-6-(4-(4-methylpiperazin-1-yl)phenyl)pyrazin-2-yl)-3,4-dihydroisoquinolin-1(2H)-one], the values for the concentration for half-maximal inhibition (IC50) (on Lck (h); in assay [1]) were 6 to 10 nM and 0.1 to 5 nM, respectively.
Regarding `C[C@@H]1CCCN1c1ccc(-c2cnc(N)c(-c3ccc4c(c3)CCNC4=O)n2)c(F)c1` [Example I-43, (R)-6-(3-amino-6-(2-fluoro-4-(2-methylpyrrolidin-1-yl)phenyl)pyrazin-2-yl)-3,4-dihydroisoquinolin-1(2H)-one], the half-maximal inhibitory concentration (IC50) is 21 to 200 nM on Lck (h) and 6 to 10 nM in assay [1].
As for `CC(C)C1CCCN(c2ccc(-c3cnc(N)c(-c4ccc5c(c4)CCNC5=O)n3)cc2)C1` (stereo not shown) [Example I-24, 6-(3-amino-6-(4-(3-isopropylpiperidin-1-yl)phenyl)pyrazin-2-yl)-3,4-dihydroisoquinolin-1(2H)-one], the IC50 on Lck (h) was 21 to 200 nM; in assay [1] it was 0.1 to 5 nM.
For the compound `CC(C)[C@@H]1CN(c2ccc(-c3cnc(N)c(-c4ccc5c(c4)CCNC5=O)n3)c(F)c2F)CCO1` [Example I-15, (R)-6-(3-amino-6-(2,3-difluoro-4-(2-isopropylmorpholino)phenyl)pyrazin-2-yl)-3,4-dihydroisoquinolin-1(2H)-one], the half-maximal inhibitory concentration (IC50) at Lck (h) is 21 to 200 nM; in assay [1], 0.1 to 5 nM.
For `CN1CCN(c2ccc(-c3cnc(N)c(-c4cc(F)c5c(c4)CCNC5=O)n3)cc2)CC1` [Example I-5, 6-(3-amino-6-(4-(4-methylpiperazin-1-yl)phenyl)pyrazin-2-yl)-8-fluoro-3,4-dihydroisoquinolin-1(2H)-one], the IC50 at Lck (h) was in the range of 6 to 10 nM; in assay [1] it was 0.1 to 5 nM.
Take `CC(C)N1CCN(c2ccc(-c3cnc(N)c(-c4ccc5c(c4)CCNC5=O)n3)cc2)CC1` [Example I-3, 6-(3-amino-6-(4-(4-isopropylpiperazin-1-yl)phenyl)pyrazin-2-yl)-3,4-dihydroisoquinolin-1(2H)-one]: the IC50 fell in the range of 6 to 10 nM on Lck (h) and 0.1 to 5 nM in assay [1].
Turning to `CC(C)[C@@H]1CN(c2ccc(-c3cnc(N)c(-c4ccc5c(c4)CCNC5=O)n3)c(F)c2)CCN1C` [Example I-39, (R)-6-(3-amino-6-(2-fluoro-4-(3-isopropyl-4-methylpiperazin-1-yl)phenyl)pyrazin-2-yl)-3,4-dihydroisoquinolin-1(2H)-one], the results for the 50% inhibitory concentration (IC50) (at Lck (h); in assay [1]) were 11 to 20 nM and 0.1 to 5 nM, respectively.
